Test results: ChEMBL document CHEMBL5375942, “Discovery of a Potent Chloroacetamide GPX4 Inhibitor with Bioavailability to Enable Target Engagement in Mice, a Potential Tool Compound for Inducing Ferroptosis In Vivo” (J Med Chem, 2023)
pEC50: −log10 of the molar value.

Assays:
NCI-H1703 [1] = test: Induction of ferroptosis in human NCI-H1703 cells assessed as cell viability incubated for 72 hrs in presence of ferrostatin-1 by CellTiter-Glo luminescent cell viability assay; type: functional, cell-based; details: NCI-H1703, 72 h
NCI-H1703 [2] = test: Induction of ferroptosis in human NCI-H1703 cells assessed as cell viability incubated for 72 hrs by CellTiter-Glo luminescent cell viability assay; type: functional, cell-based; details: NCI-H1703, 72 h
[3] = Stability in mouse plasma assessed as half life; type: ADME, cell-free
[4] = Metabolic stability in mouse liver microsomes assessed as unbound intrinsic clearance; type: ADME, Microsome
[5] = Unbound fraction in human plasma; type: ADME, cell-free
[6] = Metabolic stability in human liver microsomes assessed as unbound intrinsic clearance; type: ADME, Microsome
[7] = Stability in human plasma assessed as half life; type: ADME, cell-free
[8] = Unbound fraction in mouse plasma; type: ADME, cell-free
[9] = Aqueous solubility of the compound at pH 1; type: physicochemical
[10] = Cmax in CB17 SCID-Beige mouse subcutaneously inoculated with WSUDLCL2 cells at 30 mg/kg, ip; type: ADME, organism-based; parameters: dose 30 mg/kg, route ip; details: in vivo
[11] = Half life in CB17 SCID-Beige mouse subcutaneously inoculated with WSUDLCL2 cells at 30 mg/kg, ip; type: ADME, organism-based; details: in vivo
[12] = Aqueous solubility of the compound at pH 7; type: physicochemical
[13] = AUC in CB17 SCID-Beige mouse subcutaneously inoculated with WSUDLCL2 cells at 30 mg/kg, ip; type: ADME, organism-based; parameters: dose 30 mg/kg, route ip; details: in vivo

Row | Compound | pEC50 (NCI-H1703 [1]) | pEC50 (NCI-H1703 [2]) | half-life [3] | CL free [4] | fraction unbound [5] | CL free [6] | half-life [7] | fraction unbound [8] | solubility [9] | Cmax [10] | half-life [11] | solubility [12] | AUC [13]
1 | COC(=O)[C@H]1Cc2c([nH]c3ccccc23)[C@H](c2ccccc2)N1C(=O)CCl | < 5.00 | 6.94 | – | – | – | – | – | – | – | – | – | – | –
2 | COC(=O)[C@H]1Cc2c([nH]c3ccccc23)[C@H](c2ccc(F)cc2Cl)N1C(=O)CCl | < 5.00 | 7.55 | – | – | – | – | – | – | – | – | – | – | –
3 | COC(=O)[C@H]1Cc2c([nH]c3ccccc23)[C@H](Cc2ccccc2)N1C(=O)CCl | < 5.00 | 6.01 | 2.7 h | 4725 mL/min/kg | 0.026 | 477 mL/min/kg | 6.1 h | – | – | – | – | – | –
4 | COC(=O)[C@H]1Cc2c([nH]c3ccccc23)[C@H](c2ccc(OC(F)(F)F)cc2)N1C(=O)CCl | 5.37 | 7.12 | – | – | – | – | – | – | – | – | – | – | –
5 | COC(=O)[C@H]1Cc2c([nH]c3ccccc23)C(c2ccc(F)cc2C(F)(F)F)N1C(=O)CCl (single isomer, unassigned) | < 5.00 | 7.19 | – | – | – | – | – | – | – | – | – | – | –
6 | COC(=O)[C@H]1Cc2c([nH]c3ccccc23)[C@H](C2CCOCC2)N1C(=O)CCl | < 5.00 | 5.50 | – | 353 mL/min/kg | 0.31 | 33 mL/min/kg | – | 0.24 | – | – | – | – | –
7 | COC(=O)[C@H]1Cc2c([nH]c3ccccc23)[C@H](c2ccc(F)cc2F)N1C(=O)CCl | 5.40 | 6.97 | – | – | – | – | – | – | – | – | – | – | –
8 | CC(C)OC(=O)[C@H]1Cc2c([nH]c3ccccc23)[C@H](c2ccccc2)N1C(=O)CCl | < 5.00 | 6.58 | 2.77 h | 5810 mL/min/kg | 0.011 | 505 mL/min/kg | 6.18 h | – | – | – | – | – | –
9 | COC(=O)[C@H]1Cc2c([nH]c3ccccc23)[C@H](c2ccc(C(F)(F)F)cc2)N1C(=O)CCl | 5.49 | 7.43 | 4.38 h | 2962 mL/min/kg | – | 1420 mL/min/kg | > 16 h | – | < 0.8 µM | 410 ng/mL | 1.4 h | < 0.8 µM | 1.53 µg/h/mL
10 | COC(=O)[C@H]1Cc2c([nH]c3ccccc23)[C@H](c2ccc(S(C)(=O)=O)cn2)N1C(=O)CCl | < 5.00 | 6.01 | 1.33 h | 348 mL/min/kg | – | 35 mL/min/kg | 4.03 h | – | – | – | – | – | –
11 | C=CC(=O)N1[C@@H](c2ccccc2)c2[nH]c3ccccc3c2C[C@@H]1C(=O)OC | – | < 5.00 | 1.05 h | 905 mL/min/kg | – | 76.7 mL/min/kg | 0.933 h | – | – | – | – | – | –
12 | COC(=O)[C@H]1Cc2c([nH]c3ccccc23)[C@H](c2cccc(S(C)(=O)=O)c2)N1C(=O)CCl | 5.25 | 6.24 | 0.167 h | 563 mL/min/kg | – | 45 mL/min/kg | 4.23 h | – | – | – | – | – | –
